# In patent US20170216360A1, “METHODS AND COMPOSITIONS FOR IMPROVING HOMING OF CELLS INCLUDING MESENCHYMAL STEM CELLS” (SANOFI, priority 2014, published 2017):
# Where a name gives a salt, the structure may show the parent alone.
# Tested on: CD11a surface expression on MSCs
# Experiment: CyTOF analysis of CD11a expression levels on MSCs
# Type: cell-based, human
# Description: To further confirm the screening results, the surface expression of CD11a was also examined by Time of Flight Mass Cytometry (CyTOF2, DVS Sciences) (Newell et al., 2013, Nat Biotechnol. 31(7):623-9). MSCs were treated with Ro-31-8425 as indicated and sample preparation was performed per manufacturer's instructions with slight modifications. Briefly, the harvested MSC pellet was first resuspended with Intercalator-103Rh solution (1 μM) in PBS to identify viable cells, then washed twice with MaxPar cell staining buffer and stained with 100 μL antibody cocktail (human Nd142-CD11a and Tb159-CD90, 1:200 dilution in staining buffer) for 30 min at room temperature. After two washes, the cells were further stained with 125 nM MaxPar Intercalator-Ir in MaxPar Fix and Perm buffer for 1-2 h with gentle shaking. Finally the fixed cells were thoroughly washed with ultrapure H2O 2O for three times (1000 g, 5 min each), resuspended in 300 μL H2O and filtered through a 40 μm Falcon cell strainer (Corning) prior to CyTOF data acquisition. The CyTOF data was analyzed with Cytobank on-line data analysis platform (website www cytobank.org).
smiles,measurement,setting,value
"Cn1cc(C2=C(c3c4n(c5ccccc35)CCC(CN)C4)C(=O)NC2=O)c2ccccc21 (centres unmarked) [Compound 1929, 3-(8-aminomethyl-6,7,8,9-tetrahydro-pyrido[1,2-a]indol-10-yl)-4-(1-methyl-1H-indol-3-yl)-pyrrole-2,5-dione hydrochloride]",Time over which the percentage of CD11a-positive MSCs was stable,3 μM for 24 h,at least 4 days
same,Percentage of CD11a-positive MSCs,"0.1, 1, 3 and 10 μM for 24 hours",dose-dependent increase
